Source: patent US12570607B2, “Compound as cyclin-dependent kinase 9 inhibitor and use thereof” (CSPC Zhongqi Pharmaceutical Technology (Shijiazhuang) Co., …, priority 2019, dated 2026)

Target: hERG channel (Homo sapiens (Human), UniProt Q12809)
Experiment: In vitro hERG inhibitory activity, whole-cell patch-clamp on CHO-K1 cell line stably expressing the hERG channel
Conditions: not given
Description: Rapid delayed rectifier current (IKr) was mainly mediated by the hERG ion channel and involved in human cardiomyocyte repolarization. Inhibition of IKr was the leading cause of the clinical QT interval prolongation syndrome, even acute cardiac dysrhythmia, and even sudden death. By utilizing a whole-cell patch-clamp technology, the blocking effect of a compound on the hERG channel was detected on a CHO-K1 cell line stably expressing the hERG channel, and the half inhibition concentration IC50 of the compound was determined. It was used as a part of the comprehensive cardiac safety assessment, and it was initially evaluated in the safety in vitro screen for cardiotoxicity.
This assay included the following aspects: • The hERG current was recorded on the CHO-K1 cell line stably expressing the hERG channel by utilizing the manual patch-clamp technology; • The inhibition rate at each concentration was calculated according to the hERG tail current; • The measurement was performed at 5 concentrations for each compound to calculate the IC50 value; • 3 cells were tested at each concentration; • One positive control drug was provided.
The hERG current was recorded by utilizing a whole-cell patch-clamp technology. The cell suspension was added to a dish, and the dish was placed on the object stage of an upright microscope. After adhesion of the cells, perfusion was performed with an extracellular fluid at a flow rate of […]. A glass microelectrode was pulled with a microelectrode puller via a two-step process and the pipette rip resistance was between 2-5 MΩ. After the whole-cell record was set up, the clamp potential was held at −80 mV. The cells were depolarized to +60 mV by applying a voltage stimulus and then repolarized to −50 mV to elicit the hERG tail current. All recordation was conducted after the current became stable. The extracellular perfusion administration was started from the lowest concentration, staying for 5-10 min at each concentration until the current was stable, and then conducted with the next concentration.

hERG channel, sequence (Q12809 whole entry): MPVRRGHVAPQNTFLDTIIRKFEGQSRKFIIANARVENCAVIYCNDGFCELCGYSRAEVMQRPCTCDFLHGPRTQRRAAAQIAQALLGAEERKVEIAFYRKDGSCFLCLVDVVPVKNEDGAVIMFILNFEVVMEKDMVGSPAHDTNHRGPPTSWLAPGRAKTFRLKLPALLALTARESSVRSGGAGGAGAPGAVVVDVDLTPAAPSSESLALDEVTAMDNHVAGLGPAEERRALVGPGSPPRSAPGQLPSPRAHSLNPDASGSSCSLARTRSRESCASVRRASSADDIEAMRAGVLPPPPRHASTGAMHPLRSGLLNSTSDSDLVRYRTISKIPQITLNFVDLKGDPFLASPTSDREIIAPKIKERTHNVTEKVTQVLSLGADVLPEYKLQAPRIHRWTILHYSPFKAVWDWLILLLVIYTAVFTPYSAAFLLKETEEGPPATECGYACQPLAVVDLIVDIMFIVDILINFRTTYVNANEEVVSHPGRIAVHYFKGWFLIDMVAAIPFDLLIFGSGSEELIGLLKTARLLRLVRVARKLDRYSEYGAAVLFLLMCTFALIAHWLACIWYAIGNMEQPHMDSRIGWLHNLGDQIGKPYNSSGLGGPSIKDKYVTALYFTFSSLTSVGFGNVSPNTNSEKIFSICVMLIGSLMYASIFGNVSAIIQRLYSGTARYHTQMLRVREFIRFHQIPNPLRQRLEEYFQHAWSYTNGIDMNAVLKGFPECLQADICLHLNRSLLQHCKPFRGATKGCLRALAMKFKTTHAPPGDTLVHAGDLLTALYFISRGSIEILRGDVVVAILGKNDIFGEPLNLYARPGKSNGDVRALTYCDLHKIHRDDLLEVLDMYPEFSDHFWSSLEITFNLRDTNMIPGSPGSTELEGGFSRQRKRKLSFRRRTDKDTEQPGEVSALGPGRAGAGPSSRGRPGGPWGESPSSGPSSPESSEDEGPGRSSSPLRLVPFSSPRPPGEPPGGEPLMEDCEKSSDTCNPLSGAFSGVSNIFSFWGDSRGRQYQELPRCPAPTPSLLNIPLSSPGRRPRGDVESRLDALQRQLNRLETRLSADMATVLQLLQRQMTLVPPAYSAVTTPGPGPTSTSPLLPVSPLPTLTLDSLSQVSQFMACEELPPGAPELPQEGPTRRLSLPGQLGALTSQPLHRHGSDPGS

| SMILES | IC50 |
| --- | --- |
| CNC(=O)N[C@@H]1CCC[C@H](C(=O)Nc2cc(-c3ccc(F)cc3OC)c(F)cn2)C1 [Compound 37] | > 30000 nM |
| COc1cc(F)ccc1-c1cc(NC(=O)C2CCCC(NC(C)=O)C2)ncc1F (stereo not drawn) [Compound 3] | > 30000 nM |
| COc1cc(F)ccc1-c1cc(NC(=O)[C@H]2CCC[C@@H](NC(=O)c3ccccn3)C2)ncc1F [Compound 43] | > 30000 nM |
| CC(=O)N[C@@H]1CCC[C@H](C(=O)Nc2cc(-c3ccc(F)cc3OC(C)C)c(F)cn2)C1 [Compound 8] | > 30000 nM |
| COc1cc(F)ccc1-c1cc(NC(=O)[C@H]2CCC[C@@H](NS(C)(=O)=O)C2)ncc1F [Compound 25] | > 30000 nM |
| CC(=O)N[C@@H]1CCC[C@H](C(=O)Nc2cc(-c3cccc4ccoc34)c(F)cn2)C1 [Compound 19] | > 30000 nM |
| COC(=O)N[C@@H]1CCC[C@H](C(=O)Nc2cc(-c3ccc(F)cc3OC)c(F)cn2)C1 [Compound 36] | > 30000 nM |
| COc1cc(F)ccc1-c1cc(NC(=O)[C@H]2CCC[C@@H](NC(=O)[C@H](C)O)C2)ncc1F [Compound 48] | > 30000 nM |
| COc1cc(F)ccc1-c1cc(NC(=O)[C@H]2CCC[C@@H](NC(=O)CC#N)C2)ncc1F [Compound 32] | > 30000 nM |
| COc1ccccc1-c1cc(NC(=O)[C@H]2CCC[C@@H](NC(C)=O)C2)ncc1F [Compound 17] | > 30000 nM |

Tested on: MV4;11 cells
Experiment: In vitro MV4;11 cell proliferation inhibition (MTT method)
Assay type: cell-based
Conditions: Homo sapiens
Description: The in vitro inhibitory effect of the synthesized compounds on cell proliferation was investigated.
The trade name of MTT was thiazole blue, which was a tetrazolium salt of a dye that could accept hydrogen atoms. […] Dimethyl sulfoxide could dissolve blue-purple complexes in cells, and its light absorption value could be measured at 490-550 nm wavelength with an enzyme-linked immunosorbent detector, which could indirectly reflect the number of cells. Within a certain range of the cell number, the amount of MTT crystals formed was proportional to the number of cells. The drug to be tested was successively diluted to different concentrations and added to a 96-well plate. The OD value was determined after the drug acted for a certain time. The size of the OD value could reflect the number of living cells, and its IC50 value was calculated with SPSS19.0.
Suspension of cells: Cells were […] by centrifugation and counted. A certain density of cell suspension was formulated with a complete culture medium, blown evenly, inoculated on a 96-well plate, 100 μL per well, and then cultured in a CO2 incubator.
An appropriate amount of the drug was added to a calculated amount of DMSO and dissolved. The resulting mixture was dispensed and stored at −20° C. The formulation concentration was 10 mM.
The stock solution of the compound having a concentration of 10 mM was diluted into different concentrations (8 concentrations) of solutions of the compound in DMSO (3-fold dilution, 20×final concentration). Each concentration of solutions (10 μL) of the compound in DMSO was respectively diluted with cell culture media (90 μL) to formulate working solutions (2×final concentration). Each concentration of working solutions (100 μL) of the compound was added to the 96-well plate inoculated with cells (1×final concentration, the highest final concentration is 1000 nM). The resulting plate continued to be cultured in a CO2 incubator.
The 96-well plate was taken out, and the density of cells was observed under a microscope. The test was performed with the MTT method.
MTT method: 20 μL of MTT was added to each well; the plate was cultured for about 4 hours in the incubator; the liquid in the well was discarded; 150 μL of DMSO was added into each well; the plate was placed in a shaker and shaken for 5-10 minutes, and the test was performed with a microplate reader at a wavelength of 550 nm. 7. Data analysis: IC50 value of the drug was calculated with SPSS19.0 statistical software.

| IC50 | SMILES |
| --- | --- |
| 21 nM | COc1cc(F)ccc1-c1cc(NC(=O)[C@H]2CCC[C@@H](NC(=O)C3(C#N)CN(C)C3)C2)ncc1F [Compound 77] |
| 119 nM | CC(=O)N[C@@H]1CCC[C@H](C(=O)Nc2cc(-c3ccnc4c3ccn4C)c(F)cn2)C1 [Compound 24] |
| 13 nM | COc1cc(F)ccc1-c1cc(NC(=O)[C@H]2CCC[C@@H](NC(=O)C3(O)CC3)C2)ncc1F [Compound 51] |
| 52 nM | CNC(=O)N[C@@H]1CCC[C@H](C(=O)Nc2cc(-c3ccc(F)cc3OC)c(F)cn2)C1 [Compound 37] |
| 12 nM | COc1cc(F)ccc1-c1cc(NC(=O)[C@H]2CCC[C@@H](NC(=O)C3(F)CC3)C2)ncc1F [Compound 54] |
| 9 nM | COc1cc(O)ccc1-c1cc(NC(=O)[C@H]2CCC[C@@H](NC(C)=O)C2)ncc1F [Compound 15] |
| 48 nM | COc1cc(F)ccc1-c1cc(NC(=O)[C@H]2CCC[C@@H](NC(=O)CC3CC3)C2)ncc1F [Compound 61] |
| 67 nM | CC(=O)N[C@@H]1CCC[C@H](C(=O)Nc2cc(-c3ccc(F)nc3F)c(F)cn2)C1 [Compound 20] |
| 14 nM | COc1cc(F)ccc1-c1cc(NC(=O)[C@H]2CCC[C@@H](NC(=O)C3(C(F)(F)F)CC3)C2)ncc1F [Compound 55] |
| 32 nM | COc1cc(F)ccc1-c1cc(NC(=O)[C@H]2CCC[C@@H](NC(=O)C3(C#N)CCOCC3)C2)ncc1F [Compound 35] |
| 6 nM | COc1cc(F)ccc1-c1cc(NC(=O)[C@H]2CCC[C@@H](NC(=O)C3CC3)C2)ncc1F [Compound 62] |
| 45 nM | COc1cc(F)ccc1-c1cc(NC(=O)[C@H]2CCC[C@@H](NC(=O)Nc3cc(C)no3)C2)ncc1F [Compound 41] |
| 14 nM | COc1cc(F)ccc1-c1cc(NC(=O)[C@H]2CCC[C@@H](NC(=O)C(C)(C)O)C2)ncc1F [Compound 83] |
| 36 nM | CC(=O)N[C@@H]1CCC[C@H](C(=O)Nc2cc(-c3cccc4[nH]ccc34)c(F)cn2)C1 [Compound 22] |
| 120 nM | COc1cc(F)ccc1-c1cc(NC(=O)C2CCCC(NC(C)=O)C2)ncc1F (stereo not drawn) [Compound 3] |
| 23 nM | CC(=O)N[C@@H]1CCC[C@H](C(=O)Nc2cc(-c3ccnc4[nH]ccc34)c(F)cn2)C1 [Compound 23] |
| 17 nM | COc1cc(F)ccc1-c1cc(NC(=O)[C@H]2CCC[C@@H](NC(=O)C(F)(F)F)C2)ncc1F [Compound 42] |
| 179 nM | COc1c(-c2cc(NC(=O)[C@H]3CCC[C@@H](NC(C)=O)C3)ncc2F)ccc(F)c1F [Compound 6] |
| 37 nM | COc1cc(F)ccc1-c1cc(NC(=O)[C@H]2CCC[C@@H](NC(=O)CCO)C2)ncc1F [Compound 50] |
| 22 nM | COc1cc(F)ccc1-c1cc(NC(=O)[C@H]2CCC[C@@H](NC(=O)c3ccccn3)C2)ncc1F [Compound 43] |
| 21 nM | COc1cc(F)ccc1-c1cc(NC(=O)[C@H]2CCC[C@@H](NC(=O)C3(C#N)CCN(C)CC3)C2)ncc1F [Compound 82] |
| 28 nM | COc1cc(F)ccc1-c1cc(NC(=O)[C@H]2CCC[C@@H](Nc3nccs3)C2)ncc1F [Compound 69] |
| 17 nM | CCOCC(=O)N[C@@H]1CCC[C@H](C(=O)Nc2cc(-c3ccc(F)cc3OC)c(F)cn2)C1 [Compound 46] |
| 259 nM | COc1cc(F)ccc1-c1cc(NC(=O)N2CCC[C@@H](NC(C)=O)C2)ncc1F [Compound 70] |
| 45 nM | CC(=O)N[C@@H]1CCC[C@H](C(=O)Nc2cc(-c3ccc(F)cc3OC(C)C)c(F)cn2)C1 [Compound 8] |

| IC50 | SMILES |
| --- | --- |
| 67 nM | COc1cc(F)ccc1-c1cc(NC(=O)[C@H]2CCC[C@@H](NC(=O)CS)C2)ncc1F [Compound 81] |
| 34 nM | COc1cc(F)ccc1-c1cc(NC(=O)[C@H]2CCC[C@@H](NS(C)(=O)=O)C2)ncc1F [Compound 25] |
| 100 nM | COc1cc(F)ccc1-c1cc(NC(=O)[C@H]2CCC[C@@H](NC(=O)CNC(C)=O)C2)ncc1F [Compound 57] |
| 89 nM | COc1cc(F)c(F)cc1-c1cc(NC(=O)[C@H]2CCC[C@@H](NS(C)(=O)=O)C2)ncc1F [Compound 26] |
| 26 nM | CC(=O)N[C@@H]1CCC[C@H](C(=O)Nc2cc(-c3cccc4ccoc34)c(F)cn2)C1 [Compound 19] |
| 16 nM | COc1cc(F)ccc1-c1cc(NC(=O)[C@H]2CCC[C@@H](NC(C)=O)C2)ncc1Cl [Compound 71] |
| 44 nM | COC(=O)N[C@@H]1CCC[C@H](C(=O)Nc2cc(-c3ccc(F)cc3OC)c(F)cn2)C1 [Compound 36] |
| 8 nM | COc1cc(F)ccc1-c1cc(NC(=O)[C@H]2CCC[C@@H](NC(=O)C3COC3)C2)ncc1F [Compound 52] |
| 6 nM | C#CC(=O)N[C@@H]1CCC[C@H](C(=O)Nc2cc(-c3ccc(F)cc3OC)c(F)cn2)C1 [Compound 65] |
| 26 nM | COc1cc(F)ccc1-c1cc(NC(=O)[C@H]2CCC[C@@H](NC(=O)[C@H](C)O)C2)ncc1F [Compound 48] |
| 13 nM | COc1cc(F)ccc1-c1cc(NC(=O)[C@H]2CCC[C@@H](NC(=O)COC(C)=O)C2)ncc1F [Compound 47] |
| 11 nM | COc1cc(F)ccc1-c1cc(NC(=O)[C@H]2CCC[C@@H](NC(=O)CC#N)C2)ncc1F [Compound 32] |
| 20 nM | COc1cc(F)ccc1-c1cc(NC(=O)[C@H]2CCC[C@@H](NC(=O)CN)C2)ncc1F [Compound 56] |
| 25 nM | COc1ccccc1-c1cc(NC(=O)[C@H]2CCC[C@@H](NC(C)=O)C2)ncc1F [Compound 17] |
| 10 nM | COc1cc(F)ccc1-c1cc(NC(=O)[C@H]2CCC[C@@H](NC(=O)C3(C)CC3)C2)ncc1F [Compound 53] |
| 86 nM | COc1cc(F)ccc1-c1cc(NC(=O)[C@H]2CCC[C@@H](NC(=O)[C@H](CC(C)C)NC(C)=O)C2)ncc1F [Compound 58] |
| 8 nM | COc1cc(F)ccc1-c1cc(NC(=O)[C@H]2CCC[C@@H](NC(=O)CN(C)C)C2)ncc1F [Compound 40] |
| 12 nM | COc1cc(F)ccc1-c1cc(NC(=O)[C@H]2CCC[C@@H](NC(=O)C3CCN(C)CC3)C2)ncc1F [Compound 60] |
| 10 nM | COc1cc(F)ccc1-c1cc(NC(=O)[C@H]2CCC[C@@H](NC(=O)N(C)C)C2)ncc1F [Compound 38] |
| 72 nM | COc1cc(F)ccc1-c1cc(NC(=O)[C@H]2CCC[C@@H](NC(=O)[C@@H](C)O)C2)ncc1F [Compound 49] |
| 96 nM | COc1cc(F)ccc1-c1cc(NC(=O)[C@H]2CCC[C@@H](NC(=O)C(=O)C3CC3)C2)ncc1F [Compound 63] |
| 9 nM | C=CC(=O)N[C@@H]1CCC[C@H](C(=O)Nc2cc(-c3ccc(F)cc3OC)c(F)cn2)C1 [Compound 64] |
| 21 nM | COc1cc(F)ccc1-c1cc(NC(=O)[C@H]2CCC[C@@H](NC(=O)C3(C#N)CCC3)C2)ncc1F [Compound 34] |
| 6 nM | COc1cc(F)ccc1-c1cc(NC(=O)[C@H]2CCC[C@@H](NC(=O)[C@@H](CC(C)C)NC(C)=O)C2)ncc1F [Compound 59] |
| 34 nM | COc1cc(F)ccc1-c1cc(NC(=O)[C@H]2CCC[C@@H](NC(=O)/C=C/CN(C)C)C2)ncc1F [Compound 66] |
